In general, AC50 refers to the midpoint of the concentration-response curve, whichever way the signal moves. The term IC50 denotes the concentration at which inhibition is half-maximal. For orientation: EC50 means the concentration needed to bring the measured effect to its halfway point. By CC50 is commonly meant the concentration giving 50% cytotoxicity.

The record followed here is ChEMBL document CHEMBL1201862, “PubChem BioAssay data set” (2004).

Active and inactive are the calls of the source. Some results are limits rather than exact numbers.

Assay [1] addresses T1, Cytochrome P450 1A2 (Homo sapiens, UniProt P05177).
T1 sequence (P05177 whole entry): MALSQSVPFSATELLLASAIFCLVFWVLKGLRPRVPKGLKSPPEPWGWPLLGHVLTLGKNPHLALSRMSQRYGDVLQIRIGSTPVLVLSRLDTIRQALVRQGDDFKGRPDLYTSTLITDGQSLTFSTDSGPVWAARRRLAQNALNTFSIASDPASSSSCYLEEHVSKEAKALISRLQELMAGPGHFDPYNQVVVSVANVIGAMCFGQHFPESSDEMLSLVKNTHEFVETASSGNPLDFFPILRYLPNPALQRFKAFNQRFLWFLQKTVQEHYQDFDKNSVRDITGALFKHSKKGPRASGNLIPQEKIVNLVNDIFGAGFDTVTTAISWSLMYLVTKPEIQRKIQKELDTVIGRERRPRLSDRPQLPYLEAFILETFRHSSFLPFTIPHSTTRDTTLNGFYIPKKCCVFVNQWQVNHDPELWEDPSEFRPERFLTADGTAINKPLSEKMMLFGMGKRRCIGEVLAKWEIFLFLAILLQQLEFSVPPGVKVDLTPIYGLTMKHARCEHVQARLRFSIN

The target in assay [2] is T2, Cytochrome P450 3A4 (Homo sapiens, UniProt P08684).
T2 sequence (P08684 whole entry): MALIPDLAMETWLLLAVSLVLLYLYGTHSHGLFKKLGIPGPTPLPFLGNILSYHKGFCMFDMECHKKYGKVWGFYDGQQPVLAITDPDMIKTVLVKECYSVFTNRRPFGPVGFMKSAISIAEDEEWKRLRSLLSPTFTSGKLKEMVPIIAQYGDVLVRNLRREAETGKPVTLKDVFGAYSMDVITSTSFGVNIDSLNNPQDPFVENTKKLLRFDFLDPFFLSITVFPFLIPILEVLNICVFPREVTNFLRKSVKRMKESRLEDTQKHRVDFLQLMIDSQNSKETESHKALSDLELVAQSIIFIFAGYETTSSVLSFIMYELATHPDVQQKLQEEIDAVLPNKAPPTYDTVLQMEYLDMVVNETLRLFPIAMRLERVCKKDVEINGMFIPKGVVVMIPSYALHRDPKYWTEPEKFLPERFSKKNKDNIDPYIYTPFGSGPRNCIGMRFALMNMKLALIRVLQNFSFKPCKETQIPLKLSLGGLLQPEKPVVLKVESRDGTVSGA
For assay [3], the target named is T3, Apoptotic protease-activating factor 1 (Homo sapiens, UniProt O14727).
T3 sequence (O14727 whole entry): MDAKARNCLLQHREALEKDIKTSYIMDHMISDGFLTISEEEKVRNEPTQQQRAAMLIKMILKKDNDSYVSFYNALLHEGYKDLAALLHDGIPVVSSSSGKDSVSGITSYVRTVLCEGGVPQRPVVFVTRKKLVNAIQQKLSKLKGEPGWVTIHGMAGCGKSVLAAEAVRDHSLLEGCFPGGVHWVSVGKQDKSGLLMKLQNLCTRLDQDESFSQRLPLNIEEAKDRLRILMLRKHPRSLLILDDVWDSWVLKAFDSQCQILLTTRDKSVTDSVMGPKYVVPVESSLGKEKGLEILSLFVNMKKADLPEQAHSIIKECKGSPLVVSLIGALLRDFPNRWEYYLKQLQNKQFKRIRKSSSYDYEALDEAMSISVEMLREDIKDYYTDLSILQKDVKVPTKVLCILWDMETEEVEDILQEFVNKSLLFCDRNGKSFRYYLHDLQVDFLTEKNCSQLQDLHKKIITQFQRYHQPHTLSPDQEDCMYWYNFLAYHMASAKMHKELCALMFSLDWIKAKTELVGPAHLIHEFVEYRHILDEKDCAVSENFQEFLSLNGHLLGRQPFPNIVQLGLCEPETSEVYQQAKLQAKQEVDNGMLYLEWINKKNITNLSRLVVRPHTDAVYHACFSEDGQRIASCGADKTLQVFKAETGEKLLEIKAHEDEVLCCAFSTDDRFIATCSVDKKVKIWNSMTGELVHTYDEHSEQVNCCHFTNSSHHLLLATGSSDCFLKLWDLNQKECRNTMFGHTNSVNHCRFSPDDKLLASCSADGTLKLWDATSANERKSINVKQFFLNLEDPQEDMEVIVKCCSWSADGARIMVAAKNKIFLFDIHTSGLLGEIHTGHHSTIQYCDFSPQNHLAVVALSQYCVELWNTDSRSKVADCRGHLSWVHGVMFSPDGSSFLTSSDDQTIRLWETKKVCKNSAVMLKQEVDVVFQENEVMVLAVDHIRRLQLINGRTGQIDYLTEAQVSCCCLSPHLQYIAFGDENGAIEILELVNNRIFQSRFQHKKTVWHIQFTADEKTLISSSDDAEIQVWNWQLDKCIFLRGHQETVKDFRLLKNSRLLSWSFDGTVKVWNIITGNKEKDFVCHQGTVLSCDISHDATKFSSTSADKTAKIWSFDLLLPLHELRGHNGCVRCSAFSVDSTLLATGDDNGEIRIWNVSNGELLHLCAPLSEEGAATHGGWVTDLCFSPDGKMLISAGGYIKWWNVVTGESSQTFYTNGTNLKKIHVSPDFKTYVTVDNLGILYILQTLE
The format is functional.

Assay [4] concerns the target Estrogen receptor beta (Homo sapiens, UniProt Q92731).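 Further: recombinant ER-beta bound to coactivator SRC1 peptide in presence of estradiol agonist; inhibitors block coactivator peptide binding and lower the FRET signal.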
The nature of assay [5]: Luminescence Cell-Based Dose Response HTS to Identify Activators of Luciferase Translation or Activity in H4 […] Cells. [Related pubchem assays: 1829 (Project Summary), 1814 (Primary HTS)]. Format: functional.
The test system of assay [6] is H4. The experiment in a line: Luminescence Cell-Based Dose Response HTS to Identify Activators of 5'UTR Stem-Loop Driven Prion Protein mRNA Translation in H4 Neuroglioblastoma Cells. [Related pubchem assays: 1829 (Project Summary), 1814 (Primary HTS)]. Format: functional. Particulars: Homo sapiens.
Assay [7] deals with Induced myeloid leukemia cell differentiation protein Mcl-1 (Homo sapiens, UniProt Q07820). Format: functional.
Induced myeloid leukemia cell differentiation protein Mcl-1, sequence (Q07820 whole entry): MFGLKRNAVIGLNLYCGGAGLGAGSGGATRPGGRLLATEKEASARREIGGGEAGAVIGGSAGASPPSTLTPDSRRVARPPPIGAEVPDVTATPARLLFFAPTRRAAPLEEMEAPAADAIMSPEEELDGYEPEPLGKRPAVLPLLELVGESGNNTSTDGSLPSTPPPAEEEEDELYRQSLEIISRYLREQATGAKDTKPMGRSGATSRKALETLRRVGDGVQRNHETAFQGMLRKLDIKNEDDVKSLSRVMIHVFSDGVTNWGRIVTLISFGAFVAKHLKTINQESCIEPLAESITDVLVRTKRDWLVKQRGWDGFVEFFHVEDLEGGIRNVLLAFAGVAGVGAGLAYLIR
The nature of assay [8]: Luminescence Cell-Based Dose Confirmation HTS to Identify Activators of 5'UTR Stem-Loop Driven Alpha-Synuclein mRNA Translation in H4 Neuroglioblastoma Cells. [Related pubchem assays: 1829 (Project Summary), 1814 (Primary HTS)]. Format: functional.
A short description of assay [9]: Trypanosoma cruzi growth suppression in host cells – NIH3T3 host cells, beta-gal luminescence, confirmation (AID 2044).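 Further: intracellular parasites grown in NIH/3T3 mouse fibroblasts as host cells; luminescent beta-galactosidase reporter signal from transgenic T. cruzi replicating inside host cells; inhibitors lower the luminescence signal.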 Format: functional, cell-based.
Assay [10] in a line: NIH3T3 cell viability loss – ATP luminescence, mouse fibroblasts, counter-screen, dose response (AID 2010).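 Further: cells exposed to compound for about 90 hours before reading.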 The format is functional, cell-based.
Assay [11] has as its target Heat shock protein HSP 90-alpha (Homo sapiens, UniProt P07900). The format is functional, organism-based.
Assay [12] concerns the target T2, Cytochrome P450 3A4. The note with it: Potency.
In assay [13] the target is FAD-linked sulfhydryl oxidase ALR (Homo sapiens, UniProt P55789). Description: ALR-catalysed DTT oxidation blockers – biochemical, H2O2 detection, luminescence, cherry-pick, dose response (AID 493248).
FAD-linked sulfhydryl oxidase ALR, sequence (P55789 whole entry): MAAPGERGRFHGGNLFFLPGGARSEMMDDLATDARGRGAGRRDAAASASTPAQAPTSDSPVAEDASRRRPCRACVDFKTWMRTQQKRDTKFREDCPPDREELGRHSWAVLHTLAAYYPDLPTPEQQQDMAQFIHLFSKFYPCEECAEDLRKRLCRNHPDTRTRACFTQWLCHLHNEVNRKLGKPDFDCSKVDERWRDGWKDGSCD
For assay [14], the target named is T4, Histone-lysine N-methyltransferase NSD2 (Homo sapiens, UniProt O96028).
T4 sequence (O96028 whole entry): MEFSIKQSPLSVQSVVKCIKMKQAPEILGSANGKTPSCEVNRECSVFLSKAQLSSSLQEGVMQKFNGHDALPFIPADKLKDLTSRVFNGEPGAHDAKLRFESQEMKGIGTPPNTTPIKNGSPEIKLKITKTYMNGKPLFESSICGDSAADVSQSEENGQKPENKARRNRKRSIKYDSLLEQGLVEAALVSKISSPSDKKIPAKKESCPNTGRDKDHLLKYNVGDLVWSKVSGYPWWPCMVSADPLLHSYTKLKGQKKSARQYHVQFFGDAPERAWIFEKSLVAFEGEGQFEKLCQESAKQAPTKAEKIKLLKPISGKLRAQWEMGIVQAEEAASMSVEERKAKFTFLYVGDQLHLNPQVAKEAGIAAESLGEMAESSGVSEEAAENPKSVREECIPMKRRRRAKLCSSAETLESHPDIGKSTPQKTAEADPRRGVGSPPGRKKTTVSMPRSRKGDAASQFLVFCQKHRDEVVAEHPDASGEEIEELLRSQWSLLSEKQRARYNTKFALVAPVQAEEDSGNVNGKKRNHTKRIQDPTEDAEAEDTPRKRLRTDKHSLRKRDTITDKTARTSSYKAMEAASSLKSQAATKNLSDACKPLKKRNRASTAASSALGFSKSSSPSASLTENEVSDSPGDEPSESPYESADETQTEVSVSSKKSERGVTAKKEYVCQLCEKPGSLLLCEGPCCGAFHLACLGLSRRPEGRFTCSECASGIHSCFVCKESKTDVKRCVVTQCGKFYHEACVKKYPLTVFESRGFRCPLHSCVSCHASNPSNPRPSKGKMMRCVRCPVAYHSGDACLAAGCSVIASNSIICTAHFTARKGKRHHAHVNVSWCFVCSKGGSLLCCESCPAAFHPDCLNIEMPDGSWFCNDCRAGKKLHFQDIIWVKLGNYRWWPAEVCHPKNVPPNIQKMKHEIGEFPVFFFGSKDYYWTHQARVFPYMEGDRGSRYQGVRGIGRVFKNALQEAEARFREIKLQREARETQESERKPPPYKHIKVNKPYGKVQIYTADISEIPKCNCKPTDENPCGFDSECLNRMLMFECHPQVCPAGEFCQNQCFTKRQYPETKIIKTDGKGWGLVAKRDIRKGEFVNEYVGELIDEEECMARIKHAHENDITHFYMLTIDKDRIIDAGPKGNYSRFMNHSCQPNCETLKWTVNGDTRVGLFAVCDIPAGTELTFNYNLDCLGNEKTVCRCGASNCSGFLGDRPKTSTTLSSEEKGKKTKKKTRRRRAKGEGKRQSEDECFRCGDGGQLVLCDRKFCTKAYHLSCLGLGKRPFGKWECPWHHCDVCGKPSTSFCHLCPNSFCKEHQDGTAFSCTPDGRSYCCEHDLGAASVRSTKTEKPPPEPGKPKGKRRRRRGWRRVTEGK
The format is biochemical.

Assay [15] has as its system Vero. The experiment in a line: viability of Vero cells under compound – cytotoxicity control for flavivirus capping enzyme inhibitors (AID 588742). The format is functional. The note with it: Chlorocebus sabaeus.
Assay [16] addresses Genome polyprotein (dengue virus type 2, UniProt P29990). Description: flavivirus cap methylation enzyme inhibition – biochemical, confirmation dose response, primary screen (AID 588689). The format is functional.

Estrogen receptor beta, sequence (Q92731 whole entry): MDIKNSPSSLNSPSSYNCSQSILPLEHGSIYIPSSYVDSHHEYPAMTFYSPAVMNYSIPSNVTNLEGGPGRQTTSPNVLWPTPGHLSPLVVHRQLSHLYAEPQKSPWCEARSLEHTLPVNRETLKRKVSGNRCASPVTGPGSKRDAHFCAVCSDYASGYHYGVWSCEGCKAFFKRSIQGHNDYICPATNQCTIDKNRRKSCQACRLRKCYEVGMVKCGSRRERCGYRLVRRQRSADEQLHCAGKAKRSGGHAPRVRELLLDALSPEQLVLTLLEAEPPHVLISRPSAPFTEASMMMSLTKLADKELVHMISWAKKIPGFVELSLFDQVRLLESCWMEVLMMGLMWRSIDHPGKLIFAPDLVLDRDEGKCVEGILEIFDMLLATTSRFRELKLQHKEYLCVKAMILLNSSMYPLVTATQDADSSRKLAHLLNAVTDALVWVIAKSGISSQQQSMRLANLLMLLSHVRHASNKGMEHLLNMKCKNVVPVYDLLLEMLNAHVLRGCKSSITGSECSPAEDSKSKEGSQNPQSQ
Genome polyprotein, sequence (P29990 2492-3391 limits assumed): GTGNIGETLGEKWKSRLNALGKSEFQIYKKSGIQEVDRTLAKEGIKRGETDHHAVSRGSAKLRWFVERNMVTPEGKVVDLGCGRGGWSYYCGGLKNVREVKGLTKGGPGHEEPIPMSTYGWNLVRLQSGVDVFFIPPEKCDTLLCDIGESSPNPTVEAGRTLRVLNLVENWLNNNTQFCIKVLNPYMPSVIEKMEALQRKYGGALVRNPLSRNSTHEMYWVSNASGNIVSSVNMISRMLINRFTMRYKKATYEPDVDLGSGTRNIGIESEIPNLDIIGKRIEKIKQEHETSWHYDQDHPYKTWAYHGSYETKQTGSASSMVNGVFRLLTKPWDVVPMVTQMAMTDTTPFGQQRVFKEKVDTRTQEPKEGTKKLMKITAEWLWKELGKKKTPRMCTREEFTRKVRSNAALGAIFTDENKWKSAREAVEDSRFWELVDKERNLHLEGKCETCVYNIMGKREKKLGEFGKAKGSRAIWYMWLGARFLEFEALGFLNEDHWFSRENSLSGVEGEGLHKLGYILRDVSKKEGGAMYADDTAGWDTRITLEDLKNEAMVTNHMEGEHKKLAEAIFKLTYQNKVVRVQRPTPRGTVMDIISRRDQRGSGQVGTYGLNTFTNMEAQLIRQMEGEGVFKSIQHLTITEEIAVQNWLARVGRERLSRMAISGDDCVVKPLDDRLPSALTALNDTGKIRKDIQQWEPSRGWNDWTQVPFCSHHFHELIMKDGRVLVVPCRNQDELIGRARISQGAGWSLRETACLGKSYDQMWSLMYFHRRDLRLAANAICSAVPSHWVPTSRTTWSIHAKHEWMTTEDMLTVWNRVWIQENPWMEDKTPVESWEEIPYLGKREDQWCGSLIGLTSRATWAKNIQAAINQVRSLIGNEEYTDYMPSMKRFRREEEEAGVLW

For `COC(=O)c1ccccc1-c1ccc(/C=C2\C(=O)N(c3ccccc3)N=C2c2ccccc2)o1`, the AC50 is 5.01 µM (inconclusive) in assay [1] and 2.82 µM (inconclusive) in [2]. For the same molecule, the IC50 in assay [3] was 28.9 µM (active).

For the molecule `CC(=O)Nc1ccc(N2CCN(C(C)=O)CC2)cc1`, the IC50 in assay [4] is > 50 µM (not active).

Turning to `Cc1ccc2nc(-c3ccc(NC(=O)CN4CCN(c5ccccn5)CC4)cc3)sc2c1`, the EC50 is 9.19 µM (active) in [5] and 44.3 µM (active) in assay [6].

For the molecule `Brc1ccc(C2Nc3cccc4cccc(c34)N2)s1`, in assay [7], the half-maximal inhibitory concentration (IC50) was 9.46 µM (active).

On to `Nc1nc(CSc2ncccn2)nc(Nc2ccccc2)n1`, for which the concentration giving a half-maximal response (EC50) in assay [5] is 0.504 µM (active); in [8], 3.07 µM (active).

Turning to `COC(=O)c1ccc(CC(=O)c2c(C)cc(O)cc2O)o1`, the 50% inhibitory concentration (IC50) in assay [4] is 15 µM (active).

In the case of `CCCCCc1ccc(OCCC[n+]2ccccc2)c(CCCCC)c1`, the EC50 in assay [9] is 0.122 µM (active); in assay [10], > 60 µM (not active). In addition, in [3], the IC50 was 84.9 µM (active).

As to `Oc1cc(Cl)c(Cl)c(Cl)c1Cl`, the AC50 was 2.06 µM (active) in [11] and 12.6 µM (inconclusive) in [12].

`CC(=O)Oc1ccc2occ(-c3ccccc3)c2c1`: the EC50 in [5] is 16.7 µM (active); in assay [6], 14 µM (active); in assay [8], 13.8 µM (active).

Consider `O=C(COc1ccccc1Cl)c1ccc2c(c1)CCCC2`, for which the figures for the EC50 in assay [5] and in assay [6] were 16.7 µM (active) and 10 µM (active), respectively.

As to `CCOC(=O)C(=O)N(Nc1ccc(C)cc1)c1ccc(C)cc1`, the EC50 in [5] was 82.6 µM (active); in [8], 7.04 µM (active).

Consider `COc1ccc(S(=O)(=O)N2CCN(CC(=O)c3ccc(O)c(O)c3)CC2)cc1`, for which the concentration at half-maximal activity (AC50) in [13] is 2.33 µM (active); in assay [14], 5.33 µM (active).

Turning to `O=C1C(O)=CC(=C(c2ccccc2)c2ccccc2)c2ccccc21`, the CC50 in assay [15] was > 40 µM (active). The 50% inhibitory concentration (IC50) in [16] is > 100 µM (active).

As for `COc1cc(/C=N/NC(=O)c2cc(-c3ccco3)nc3ccccc23)cc(OC)c1O`, the IC50 in assay [7] was 8.35 µM (active). Besides, the AC50 in [13] was 0.13 µM (active).

Turning to `COc1cc(O)cc(OC)c1OC` [ANTIAROL], the AC50 in assay [12] is 31.6 µM (inconclusive).

`CCCc1cc(=O)oc2c3c(c4c(c12)OC(C)(C)C=C4)O[C@H](C)[C@@H](C)[C@@H]3O` [CALANOLIDE A]: the concentration for a half-maximal effect (EC50) in assay [9] is 2.28 µM (active); in assay [10], 4.87 µM (active). In addition, the concentration for half-maximal inhibition (IC50) in assay [3] is 20.3 µM (active).

In the case of `O=C(CC(=O)c1ccccc1)c1ccccc1` [DIBENZOYLMETHANE], the half-maximal activity concentration (AC50) in assay [12] is 12.6 µM (inconclusive).
